Among the data in ChEMBL document CHEMBL1126832, “2-Amido-8-methoxytetralins: a series of nonindolic melatonin-like agents” (J Med Chem, 1993) are Ki, Relative affinity and IC50 values, retold here.

One test has as its target Melatonin receptor (Gallus gallus, UniProt P49288+P51050+P49285). As to the kind of experiment: Binding affinity to compete for 2-[125I]iodomelatonin binding to chicken retinal membranes. More on the design: species or system Retina, Membrane.
Test [1] has as its target Melatonin receptor (Gallus gallus) (UniProt P49288+P51050+P49285). As to the kind of experiment: Relative binding affinity to chicken retinal membranes compared to 2-[125I]iodomelatonin. As to conditions: Retina; Membrane; call rule not given here.
The target of test [2] is Melatonin receptor (Oryctolagus cuniculus). As to the kind of experiment: Inhibition of […] calcium dependent dopamine release from the rabbit retina.
Another test is filed under the species Oryctolagus cuniculus. In words: Tested for in vitro inhibition of calcium-dependent release of [3H]dopamine from rabbit retina; NE- No effect. The format is functional.

On to `COc1cccc2c1CC(NC(=O)c1ccccc1)CC2` (stereo unspecified), for which the Ki (as a rule, a dissociation constant, usually derived from enzyme kinetics or from competition with a known ligand) at Melatonin receptor was determined as 23100 nM. For the same compound, the Relative affinity in test [1] is 40500. Also, the IC50 (in general, the midpoint of a concentration-inhibition curve) in test [2] is 22 nM.

In turn, `COc1cc2c(CCNC(C)=O)c(C)[nH]c2c(Cl)c1Cl` showed an inhibitory constant (Ki) at Melatonin receptor of 0.23 nM. The Relative affinity in test [1] worked out at 0.4. In test [2], the IC50 was found to be 0.01 nM.

`COc1cccc2c1CC(NC(=O)C(C)C)CC2` (stereo unspecified) registered an inhibition constant (Ki) on Melatonin receptor of 312 nM. The same compound returned a Relative affinity in test [1] of 547. In test [2], the IC50 worked out at 7.9 nM.

`COc1ccccc1CCNC(C)=O`: at Melatonin receptor, the inhibitory constant (Ki) stood at 420 nM. The Relative affinity in test [1] is 737. Besides, the IC50 in test [2] amounted to 3 nM.

For the compound `COc1cccc2c1CC(NC(=O)C1CC1)CC2` (stereo unspecified), the inhibitory constant (Ki) on Melatonin receptor amounted to 141 nM. Besides, the Relative affinity in test [1] worked out at 247. Besides, the IC50 in test [2] was 2.5 nM.

At Melatonin receptor, `CCCC(=O)NCCc1c[nH]c2ccc(OC)cc12` registered an inhibition constant Ki of 0.73 nM. For the same compound, the Relative affinity in test [1] came to 1.28.

The compound `O=C(CCl)NC1CCc2ccccc2C1` (stereo unspecified) yielded an inhibitory constant (Ki) on Melatonin receptor of 95.1 nM. The same compound had a Relative affinity in test [1] of 167. Further, the IC50 in test [2] turned out to be 1.3 nM.

Take `CCC(=O)NCCc1c[nH]c2ccc(OC)cc12`: the inhibition constant Ki at Melatonin receptor amounted to 0.27 nM. Also, the Relative affinity in test [1] was found to be 0.47.

The compound `CCC(=O)NCCc1ccccc1OC` came in with a Ki at Melatonin receptor of 789 nM. Also, the Relative affinity in test [1] was 1380.

Consider `CCCC(=O)NCCc1ccccc1OC`, for which the Ki on Melatonin receptor is on record as 748 nM. Further, in test [1], the Relative affinity was 1310.

In the case of `CCCC(=O)NC1CCc2ccccc2C1` (stereo unspecified), the Ki on Melatonin receptor turned out to be 44.4 nM. Also, the Relative affinity in test [1] worked out at 78. Further, the IC50 in test [2] came out at 1 nM.

In the case of `COc1ccc2c(c1)CCC(N)C2.Cl` (stereo unspecified), the Ki at Melatonin receptor is listed as more than 100000 nM.

Compound `CC(=O)NC1CCc2ccccc2C1` (stereo unspecified) yielded a Ki on Melatonin receptor of 665 nM. This compound also registered a Relative affinity in test [1] of 1170. Also, the half-maximal inhibitory concentration (IC50) in test [2] was determined as 52 nM.

Regarding `COc1ccc2c(c1)CC(NC(C)=O)CC2` (stereo unspecified), on Melatonin receptor, the Ki amounted to 121 nM. This compound also showed a Relative affinity in test [1] of 212. For the same compound, the IC50 in test [2] is given as 1.6 nM.

The compound `CCC(=O)NC1CCc2ccccc2C1` (stereo unspecified) returned a Ki on Melatonin receptor of 145 nM. This compound displayed a Relative affinity in test [1] of 254. The IC50 in test [2] is 8.1 nM.

Compound `COc1cccc2c1CC(NC(=O)CCl)CC2` (stereo unspecified) came in with a Ki on Melatonin receptor of 3.75 nM. This compound yielded a Relative affinity in test [1] of 6.6. For the same compound, the IC50 in test [2] is listed as 0.063 nM.

Compound `COc1cccc(CCNC(C)=O)c1` had an inhibition constant Ki on Melatonin receptor of 581 nM. The Relative affinity in test [1] stood at 1020.

With `COc1cccc2c1CC(NC(=O)Cc1ccccc1)CC2` (stereo unspecified), the 50% inhibitory concentration (IC50) result in the test filed under Oryctolagus cuniculus was “Not Active”.

As for `CCCC(=O)NC1CCc2cccc(OC)c2C1` (stereo unspecified), on Melatonin receptor, the Ki was found to be 3.6 nM. Moreover, the Relative affinity in test [1] amounted to 6.3. In test [2], the half-inhibitory concentration (IC50) is 1.2 nM.

At Melatonin receptor, `COc1cccc2c1CCC(NC(C)=O)C2` (stereo unspecified) yielded a Ki of 1950 nM. Also, the Relative affinity in test [1] is 3420. In test [2], the half-inhibitory concentration (IC50) stood at 6.5 nM.
